Data published in US12404304B1, “Telomerase reverse transcriptase (TERT) expression enhancing compounds and methods for using the same” (Sierra Sciences, LLC, priority 2007, dated 2025).
Like-named read-outs stand apart in the source and are kept apart here.

Columns and labels:
[1] = test system: human TERT expression (hTERT mRNA); experiment: Quantitative real-time RT-PCR of hTERT mRNA expression (Ct, transcripts) in compound-treated cells; assay type: cell-based
Description: Telomerase is a ribonucleoprotein complex composed of the catalytic protein subunit (human telomerase reverse transcriptase or hTERT) and the RNA template. hTERT expression level can be measured by PCR.
Briefly, amplification of the target sequence is monitored per PCR cycle by detecting the fluorescence signal emitted by an internal probe that is degraded by the 5′ nuclease activity of the Taq polymerase. The emission signal accumulates in each sample, and the Ct required to reach a given fluorescence threshold is determined (Ct stands for Cycle Threshold and is a measure of the number of PCR cycles that are required to amplify a target—thus, a lower Ct score means that there is more abundant hTERT mRNA). Thus, the Ct value of a sample inversely correlates to the quantity of the starting cDNA which correlates to the number of mRNA transcripts. Using the cDNA of known quantity, a standard curve can be generated and used to determine the starting amount of mRNA transcripts based on the […] of each sample.
Quantitative real-time PCR can be done on cDNA from test compound-treated and nontreated cells by use of a ABI Prism 7900 Sequence Detection System (PE Applied Biosystems, Foster City, CA) following the Assays-on-Demand protocol (PE Applied Biosystems, Foster City, CA). Quantitative data can be analyzed using the Sequence Detection System software version 2.1 (PE Applied Biosystems).
The following compounds were tested in assays designed to identify compounds that enhance human TERT expression.

viable cells in culture = experiment: Cell viability assay (CellTiter-Glo Luminescent Cell Viability Assay, ATP quantitation, percent of vehicle control)

Row | Structure (SMILES) | Average Number of hTERT Transcripts ([1]; quantitative real-time RT-PCR) | Average Cell Viability after 24 Hours (% DMSO) (viable cells in culture) | Average Number of hTERT Transcripts [1]
1 | O=C(NC1CC1)c1cc(-c2cccs2)on1 [compound 1208] | 380.09 | 70.93 | 
2 | O=C(Nc1nccs1)c1sc2ccccc2c1Cl [compound 1316] | 13.39 | 73.91 | 
3 | Cc1cc(C(=O)N/N=C/c2ccccc2O)c(C)o1 [compound 1282] | 27.61 | 68.67 | 
4 | Cc1ccc(-c2cc(O)n(-c3nc4ccccc4[nH]3)n2)cc1 [compound 1120] | 118.82 | 52.50 | 
5 | O=C(NCCCn1ccnc1)c1cc(-c2ccc(F)cc2)on1 [compound 1179] | 3.70 | 97.79 | 
6 | c1ccc(-c2nc3ccccn3c2Nc2ccc3c(c2)OCCO3)nc1 [compound 1552] |  | 64.55 | 21.09
7 | COC(=O)c1sc(NC(=S)NCc2cccnc2)c(C(=O)OC)c1C [compound 1440] |  | 99.11 | 13.85
8 | CC1(C)CC(NC(=O)c2ccc(S(=O)(=O)N3CCOCC3)cc2)CC(C)(C)N1 [compound 1363] | 32.11 | 89.56 | 
9 | CNC(=O)C1CCN(Cc2ccc(F)cc2)CC1 [compound 1358] | 7.53 | 111.88 | 
10 | O=C(NCCN1CCNC1=O)c1cc(-c2cccs2)on1 [compound 1509] |  | 73.34 | 72.08
11 | O=C(N/N=C/C=C/c1ccccc1)c1ccccc1O [compound 1268] | 14.70 | 80.84 | 
12 | Cn1cc(C(=O)N/N=C/c2c(O)ccc3ccccc23)ccc1=O [compound 1272] | 33.61 | 57.10 | 
13 | Cc1nn2c(-c3cccnc3)nnc2s1 [compound 1369] | 15.35 | 98.38 | 
14 | CCc1ccc(NC2c3ccccc3C(=O)N2Cc2ccc3c(c2)OCO3)cc1 (stereo not drawn) [compound 1326] | 8.73 | 86.99 | 
15 | CC(=O)Oc1ccccc1C(=O)Nc1ccc(F)cc1F [compound 1318] | 13.40 | 59.35 | 
16 | CCNC(=O)c1cc(-c2cccs2)on1 [compound 1207] | 275.25 | 87.06 | 
17 | COc1ccc(-c2cc3ccccn3c2C)cc1 [compound 1322] | 20.10 | 81.69 | 
18 | COc1ccc(C2CC(=O)C3=C(C2)Nc2ccccc2N(C(=O)CCC(=O)O)C3c2cccnc2)cc1OC (stereo not drawn) [compound 1406] |  | 105.29 | 4.62
19 | COc1cc(C2C(C(=O)c3ccc(C)o3)=C(O)C(=O)N2CCCN2CCOCC2)cc(OC)c1OC (stereo not drawn) [compound 1403] |  | 95.26 | 9.95
20 | Cc1cnc(CNC(=O)c2cc(-c3cccs3)on2)cn1 [compound 1519] |  | 110.34 | 303.81
21 | O=C(NCCSCc1ccccc1)c1cc(-c2cccs2)on1 [compound 1491] |  | 102.96 | 5.09
22 | O=C(Nc1nc(-c2ccccn2)cs1)c1cc(Cl)sc1Cl [compound 1505] |  | 70.89 | 43.28
23 | Cc1nn2c(=O)c(Cc3cccc(Cl)c3)c(C)[nH]c2c1-c1ccccc1 [compound 1166] | 152.34 | 77.99 | 

Row | Structure (SMILES) | Average Number of hTERT Transcripts ([1]; quantitative real-time RT-PCR) | Average Cell Viability after 24 Hours (% DMSO) (viable cells in culture) | Average Number of hTERT Transcripts [1]
24 | CCCCC(=O)OC1=C(C(=O)c2ccccc2)N(CC)S(=O)(=O)c2ccccc21 [compound 1218] | 3.35 | 82.36 | 
25 | C=CCNS(=O)(=O)c1ccc(C(=O)N2CCCCC2C)cc1 (stereo not drawn) [compound 1370] |  | 107.18 | 11.58
26 | CC(Oc1cccc2ccccc12)C(=O)NN=Cc1cccc2cccnc12 (stereo not drawn) [compound 1284] | 44.70 | 73.23 | 
27 | CCOc1ccc(NC(=O)c2c(NC(=O)c3ccncc3)sc3c2CCC(C(C)(C)C)C3)cc1 (stereo not drawn) [compound 1232] | 23.68 | 112.57 | 
28 | COc1ccc(NC(=S)NCc2ccco2)c(OC)c1 [compound 1541] |  | 104.75 | 3.41
29 | Cc1ccc(SCc2cc(=O)n3nc(C)c(-c4ccc(F)cc4)c3[nH]2)cc1 [compound 1168] | 79.80 | 63.67 | 
30 | O=C(NC(=S)Nc1cc(Cl)cc(Cl)c1)c1cccc(F)c1 [compound 1339] | 7.09 | 68.94 | 
31 | CCCCc1c(C)nn(-c2nc(C)c(C(=O)OCC)s2)c1O [compound 1129] | 54.36 | 68.77 | 
32 | O=C(Nc1nc(-c2ccccn2)cs1)c1ccc(Br)s1 [compound 1171] | 22.66 | 56.61 | 
33 | Cc1nn(-c2nc3ccccc3[nH]2)c(O)c1Cc1ccccc1Cl [compound 1144] | 54.47 | 40.68 | 
34 | Cc1cc(OCC(=O)Nc2ccc(S(=O)(=O)Nc3nccs3)cc2)ccc1C(C)C [compound 1396] |  | 88.25 | 12.14
35 | C=CCNC(=O)c1cc(-c2ccc(F)cc2)on1 [compound 1182] | 19.03 | 87.44 | 
36 | Cc1ccc(OCC(=O)N/N=C/c2c(C)nn(-c3ccccc3)c2O)c(C)c1 [compound 1483] |  | 81.33 | 5.19
37 | CC1=NN(c2ccccc2)C(=O)/C1=C\NNC(=O)c1ccccc1 [compound 1465] |  | 80.62 | 20.29
38 | O=C(N/N=C/c1c(O)ccc2ccccc12)c1ccc(CO)nc1 [compound 1527] |  | 89.01 | 15.53
39 | O=C(N/N=C/c1cc(Br)ccc1O)c1cc2ccccc2cc1O [compound 1269] | 93.93 | 68.44 | 
40 | CCOC(=O)COc1ccc2c(C)cc(=O)oc2c1C [compound 1308] | 3.16 | 90.12 | 
41 | O=C(Oc1ccc([N+](=O)[O-])cc1)c1cc(S(=O)(=O)N2CCOCC2)cs1 [compound 1397] |  | 96.05 | 5.00
42 | Cc1nn2c(=O)cc(-c3ccccc3)[nH]c2c1-c1ccccc1 [compound 1162] | 113.08 | 65.07 | 
43 | CCCCN1C(C(=O)c2ccccc2)=C(OC(C)=O)c2ccccc2S1(=O)=O [compound 1214] | 32.75 | 55.08 | 
44 | CN1CCN(c2ccc(CNC(=O)c3cc(-c4cccs4)on3)cc2)CC1 [compound 1500] |  | 110.86 | 17.14
45 | O=C(Nc1nc(-c2ccccn2)cs1)c1ccc(-c2nc3ccccc3s2)s1 [compound 1496] |  | 12.76 | 11.43
